According to patent US20080021106A1, “CELLULAR UPTAKE OF BIOACTIVE AGENTS” (Aesgen, Inc., priority 1999, published 2008):
Where two headings read alike, the source gives them in different places. Where a SMILES comes first, the peptide text is derived from it. [ ]: non-standard residue; d: D form. Sar = CNCC(=O)O

Legend:
Caco-2 cell monolayers [1] = test system: Caco-2 cell monolayers
Description: (§1) Uptake and permeability of each compound was measured in the apical-to-basolateral direction, with and without vehicle.
(§2) Each compound was tritiated. ^14C-mannitol was used as an evaluation of monolayer/cell integrity (i.e. as a low uptake/permeability marker).
(§3) Uptake and Permeability Assessments. Compound cellular uptake into and permeability across Caco-2 monolayers was measured.
(§4) Monolayer integrity was monitored using ^14C-mannitol permeability. Mannitol uptake was also studied.
(§5) ^14C-mannitol and ^3H-drugs were quantified by liquid scintillation counting. For uptake studies, at designated time points (10 sec, 60 sec, and 5 min), the donor solution was aspirated off. The cell monolayer was washed twice with ice cold HBSS to remove any residual binding and then dissolved in 1 ml of the cell solubilizing agent, Solvable®. The cell lysate (0.5 ml) was added to 5 ml scintillation cocktail (Econosafe®) and counted on liquid scintillation counter (Beckman LS5801, Columbia, Md.). For permeability studies, 0.5 ml of received solution was added to 5 ml scintillation cocktail (Econosafe®) and counted on liquid scintillation counter.
(§6) Permeability (3) in each experiment was calculated (FIG. 8-12) using eq 1: [formula] where P is permeability, dM/dt is rate of drug mass accumulation (i.e., radioactivity) in receiver compartment, A is area, and Cd is donor drug concentration (i.e., radioactivity). […] Permeability is an absolute measure (units of cm/Sec or velocity) and can be determined even though the absolute drug concentrations were not known.

Caco-2 cell monolayers [2] = test system: Caco-2 cell monolayers; remark: listed apart in the source
Description: as §1, §2, §3, §4, §5
(§7) Since saturated solutions of unknown concentration of drugs were used, absolute uptake could not be calculated.

Caco-2 cell monolayers [3] = test: Cellular uptake of tritiated drugs and 14C-mannitol into Caco-2 monolayers, with and without vehicle; conditions: saturated solutions, AES-14 / blank AES-14 vs HBSS, up to 5 min
Description: as §1, §2, §3, §4, §5, §7

Caco-2 cell monolayers [4] = test: Caco-2 permeability, apical to basolateral, with and without vehicle; conditions: no vehicle vs with vehicle, 5 min period (FIG. 8-12)
Description: as §1, §2, §3, §4, §5, §6

**Q.** Which “effect of Aesgen-14 vehicle on Caco-2 permeability (in words)” value (from here on “effect of Aesgen-14 vehicle”) (Caco-2 cell monolayers [1]) does the source give for NC(=O)C[C@H](N)C(=O)O [L-asparagine] here?
**A.** no effect

**Q.** How did the “effect of Aesgen-14 vehicle” value (Caco-2 cell monolayers [1]) turn out when NC(=O)CC[C@H](N)C(=O)O [L-glutamine] was run?
**A.** no effect

**Q.** And the “enhancement of cellular uptake by vehicle” value (Caco-2 cell monolayers [2])?
**A.** To perhaps a lesser extent, vehicle enhanced

**Q.** Which “effect of vehicle on mannitol permeability (in words)” value (Caco-2 cell monolayers [1]) does the source give for OC[C@@H](O)[C@@H](O)[C@H](O)[C@H](O)CO [Mannitol, mannitol] here?
**A.** no effect

**Q.** What about the “effect of vehicle on mannitol relative uptake (in words)” value (Caco-2 cell monolayers [2]) of the same compound?
**A.** no effect

**Q.** With CN(CC(=O)O)C(=O)CN [glycylsarcosine] (H-Gly-[Sar]-OH) as the compound, how does the “enhancement of cellular drug uptake by vehicle (relative uptake vehicle vs HBSS)” value (Caco-2 cell monolayers [3]) read?
**A.** about four-fold

**Q.** And the “effect of Aesgen-14 vehicle” value (Caco-2 cell monolayers [4])?
**A.** no effect
